Square brackets hold non-standard residues; d marks the D form. Ends that are not written are not given here. Peptide text beside a SMILES is read from it. Nle = CCCC[C@H](N)C(=O)O
Tests used:
[1] = system: TRF-stimulated secretion of TSH and prolactin; test: Specificity: effect on TRF-stimulated TSH and prolactin secretion; assay type: cell-based
[2] = system: CRF-induced ACTH secretion; test: CRF-induced ACTH secretion in intact, non-anesthetized rats; assay type: in vivo
[3] = system: GRF-stimulated secretion of GH; test: Specificity: effect on GRF-stimulated GH secretion; assay type: cell-based
[4] = target: T1, cultured rat pituitary cells (Rattus norvegicus, UniProt P35353); test: Block of ACTH and β-endorphin secretion by cultured rat pituitary cells by CRF antagonists (procedure of Example XLIII); assay type: cell-based; conditions: for secretion of ACTH and β-END-LI (antagonist test): general procedure of Example XLIII
T1 sequence (P35353 24-415): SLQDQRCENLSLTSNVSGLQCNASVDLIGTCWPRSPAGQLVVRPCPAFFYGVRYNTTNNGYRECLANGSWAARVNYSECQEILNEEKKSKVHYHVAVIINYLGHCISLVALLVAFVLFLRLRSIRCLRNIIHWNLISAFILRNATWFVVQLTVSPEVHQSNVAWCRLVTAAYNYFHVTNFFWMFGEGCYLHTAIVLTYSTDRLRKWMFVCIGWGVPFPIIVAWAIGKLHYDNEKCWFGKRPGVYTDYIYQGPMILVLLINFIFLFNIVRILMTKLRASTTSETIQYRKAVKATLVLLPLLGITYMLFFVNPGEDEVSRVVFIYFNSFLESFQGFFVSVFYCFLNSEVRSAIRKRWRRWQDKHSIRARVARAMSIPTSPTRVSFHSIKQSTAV
Description: (§1) The effectiveness of synthetic CRF antagonists to block the secretion of ACTH and B-endorphin by cultured rat pituitary cells is measured using the procedure as generally set forth in Vale et al., Endocrinology, 91, 562 (1972). In vivo testing is carried out using the general procedure set forth in C. Rivier et al., Science, 218, 377 (1982).

[5] = system: ACTH rise due to ether-exposure; test: Ether-exposure (stressor) induced ACTH rise in intact rats; assay type: in vivo
[6] = system: GnRH-stimulated secretion of LH and FSH; test: Specificity: effect on GnRH-stimulated LH and FSH secretion; assay type: cell-based
spontaneous ACTH release = test: Spontaneous ACTH release by adrenalectomized rats; assay type: in vivo; conditions: iv injection of 3 mg/kg BW (2.7 nmole)
Description: as §1
The in vivo effect of CRF antagonists is tested on the spontaneous ACTH release by adrenalectomized rats.

[7] = system: ACTH and B-END-LI secretion; test: ACTH and β-END-LI secretion in vivo after intravenous hCRF in rats
Description: Plasma levels of ACTH and B-END-LI are elevated for at least 5-20 minutes following the intraveneous administration of hCRF to nembutal-anesthesized male rats and to quiescent male or female rats with indwelling intravenous cannulae.

[8] = Lowering of blood pressure, in vivo testing by the general procedure of Example III

Compound	secretion of ACTH and β-END-LI (antagonist test) [4]	other results
H-DLTFHLLREMLEMAKAEQEAEQAALNRLLLEEA-NH2 [AHC (9-41)]	–	effect on the TRF-stimulated secretion of TSH and prolactin [1]: no effect; inhibition of CRF-induced ACTH secretion [2]: dose-related inhibition; effect on the GRF-stimulated secretion of GH [3]: no effect; type of inhibition of oCRF-stimulated ACTH secretion ([4]; different concentrations of oCRF, several concentrations of antagonist against oCRF (1 nM)): competitive inhibition; ACTH rise due to ether-exposure [5]: prevents most, but not all; effect on the GnRH-stimulated secretion of LH and FSH [6]: no effect; plasma ACTH levels (spontaneous ACTH release) (spontaneous ACTH release): marked decrease
CC[C@H](C)[C@H](NC(=O)[C@@H](NC(=O)[C@H](CCC(=O)O)NC(=O)[C@H](CCSC)NC(=O)[C@H](CC(C)C)NC(=O)[C@H](CCCCN)NC(=O)[C@H](CCCNC(=N)N)NC(=O)[C@H](CC(N)=O)NC(=O)[C@H](CO)NC(=O)[C@H](Cc1c[nH]cn1)NC(=O)[C@H](C)NC(=O)[C@H](CCC(N)=O)NC(=O)[C@H](CCC(N)=O)NC(=O)[C@H](C)NC(=O)[C@H](CC(C)C)NC(=O)[C@H](CCC(N)=O)NC(=O)[C@H](CCC(=O)O)NC(=O)[C@H](C)NC(=O)[C@H](CCCNC(=N)N)NC(=O)[C@H](C)NC(=O)[C@H](CCSC)NC(=O)[C@H](CCC(=O)O)NC(=O)[C@H](CC(C)C)NC(=O)[C@@H](NC(=O)[C@H](CCC(=O)O)NC(=O)[C@H](CCCNC(=N)N)NC(=O)[C@H](CC(C)C)NC(=O)[C@H](CC(C)C)NC(=O)[C@H](Cc1c[nH]cn1)NC(=O)[C@H](Cc1ccccc1)NC(=O)[C@@H](NC(=O)[C@H](CC(C)C)NC(=O)[C@H](CC(=O)O)NC(=O)[C@H](CC(C)C)NC(=O)[C@H](CO)NC(=O)[C@@H](NC(=O)[C@@H]1CCCN1C(=O)[C@@H]1CCCN1C(=O)[C@H](CCC(=O)O)NC(=O)[C@H](CCC(=O)O)NC(=O)[C@@H](N)CO)[C@@H](C)CC)[C@@H](C)O)C(C)C)[C@@H](C)CC)C(N)=O [hCRF]	–	time for which plasma levels of ACTH and B-END-LI are elevated ([7]; intravenous administration, nembutal-anesthetized male rats and quiescent male or female rats with indwelling intravenous cannulae): 5 to 20 min; ACTH and B-END-LI secretion in vivo ([7]; several rat preparations): powerful stimulator
H-Asp-CML-Thr-Leu-Glu-CML-Leu-Arg-Glu-Met-CML-Glu-Met-Ala-Lys-Ala-Glu-Gln-CML-Ala-Glu-Gln-Ala-Ala-CML-Asn-Arg-Leu-CML-Leu-Glu-Glu-Ala-NH2 [[CML^10,14,19,27,33,38]-AHC(9-41)]	stimulates	lowering of blood pressure [8]: very significant lowering of blood pressure
H-DLTFELLREVLEVARAEQLAQQAHSNRKLMEII-NH2 [[G1u^13, Val^21]-hCRF(9-41)]	inhibits	–
H-DLTFHLLRNMIEMARNENQREQAGLNRKYLDEV-NH2 [Carp Urotensin 1(9-41)]	inhibits	–
CCCC[C@H](NC(=O)[C@H](CCC(=O)O)NC(=O)[C@H](CC(C)C)NC(=O)[C@H](CCCC)NC(=O)[C@H](CCC(=O)O)NC(=O)[C@H](CCCNC(=N)N)NC(=O)[C@H](CC(C)C)NC(=O)[C@H](CC(C)C)NC(=O)[C@H](Cc1c[nH]cn1)NC(=O)[C@H](Cc1ccccc1)NC(=O)[C@@H](NC(=O)[C@H](CC(C)C)NC(=O)[C@H](CC(=O)O)NC(=O)[C@@H](N)CC(C)C)[C@@H](C)O)C(=O)N[C@@H](C)C(=O)N[C@@H](CCCCN)C(=O)N[C@@H](C)C(=O)N[C@@H](CCC(=O)O)C(=O)N[C@@H](CCC(N)=O)C(=O)N[C@@H](CCC(=O)O)C(=O)N[C@@H](C)C(=O)N[C@@H](CCC(=O)O)C(=O)N[C@@H](CCC(N)=O)C(=O)N[C@@H](C)C(=O)N[C@@H](C)C(=O)N[C@@H](CC(C)C)C(=O)N[C@@H](CC(N)=O)C(=O)N[C@@H](CCCNC(=N)N)C(=O)N[C@@H](CC(C)C)C(=O)N[C@@H](CC(C)C)C(=O)N[C@@H](CC(C)C)C(=O)N[C@@H](CCC(=O)O)C(=O)N[C@@H](CCC(=O)O)C(=O)N[C@@H](C)C(N)=O [[Nle^18,21]-AHC(8-41)] (H-LDLTFHLLRE[Nle]LE[Nle]AKAEQEAEQAALNRLLLEEA-NH2)	inhibits	–
LSLELLRKMIEARKQEKEKQQAANNRLLLDII-NH2	inhibits	–
H-DLTFHLLREVAEMTRAEQLAQQAHSNRKLMEII-NH2 [(Ala^19, Thr^22]-hCRF(9-41)]	inhibits	–
H-LDLTFHLLREVLEMAKAEQLAQQAHSNRKLLEII-NH2 [[Lys^23, Leu^38]-hCRF(8-41)]	inhibits	–
H-IDLTFHLLRNMIEMARNENQREQAGLNRKYLDEV-NH2 [Carp Urotensin 1(8-41)]	inhibits	–
H-DLSLELLRKMIEIAKQEKEKQQAANNRLLMDTI-NH2 [[Ala^21, Met^37]-sauvagine(8-40)]	inhibits	–
CCCC[C@H](NC(=O)[C@H](CCC(=O)O)NC(=O)[C@H](CC(C)C)NC(=O)[C@H](CCCC)NC(=O)[C@H](CCC(=O)O)NC(=O)[C@H](CCCNC(=N)N)NC(=O)[C@H](CC(C)C)NC(=O)[C@H](CC(C)C)NC(=O)[C@H](Cc1c[nH]cn1)NC(=O)[C@H](Cc1ccccc1)NC(=O)[C@@H](NC(=O)[C@H](CC(C)C)NC(=O)[C@@H](N)CC(=O)O)[C@@H](C)O)C(=O)N[C@@H](C)C(=O)N[C@@H](CCCCN)C(=O)N[C@@H](C)C(=O)N[C@@H](CCC(=O)O)C(=O)N[C@@H](CCC(N)=O)C(=O)N[C@@H](CCC(=O)O)C(=O)N[C@@H](C)C(=O)N[C@@H](CCC(=O)O)C(=O)N[C@@H](CCC(N)=O)C(=O)N[C@@H](C)C(=O)N[C@@H](C)C(=O)N[C@@H](CC(C)C)C(=O)N[C@@H](CC(N)=O)C(=O)N[C@@H](CCCNC(=N)N)C(=O)N[C@@H](CC(C)C)C(=O)N[C@@H](CC(C)C)C(=O)N[C@@H](CC(C)C)C(=O)N[C@@H](CCC(=O)O)C(=O)N[C@@H](CCC(=O)O)C(=O)N[C@@H](C)C(N)=O [[Nie^18,21]-AHC(9-41)] (H-DLTFHLLRE[Nle]LE[Nle]AKAEQEAEQAALNRLLLEEA-NH2)	inhibits	–
CCCC[C@H](N)C(=O)N[C@@H](CC(=O)O)C(=O)N[C@@H](CC(C)C)C(=O)N[C@@H](CO)C(=O)N[C@@H](Cc1ccccc1)C(=O)N[C@@H](Cc1c[nH]cn1)C(=O)N[C@@H](CC(C)C)C(=O)N[C@@H](CC(C)C)C(=O)N[C@@H](CCCNC(=N)N)C(=O)N[C@@H](CCC(=O)O)C(=O)N[C@H](C(=O)N[C@@H](CC(C)C)C(=O)N[C@@H](CCC(=O)O)C(=O)N[C@@H](CCSC)C(=O)N[C@@H](C)C(=O)N[C@@H](CCCNC(=N)N)C(=O)N[C@@H](C)C(=O)N[C@@H](CCC(=O)O)C(=O)N[C@@H](CCC(N)=O)C(=O)N[C@@H](CC(C)C)C(=O)N[C@@H](C)C(=O)N[C@@H](CCC(N)=O)C(=O)N[C@@H](CCC(N)=O)C(=O)N[C@@H](C)C(=O)N[C@@H](Cc1c[nH]cn1)C(=O)N[C@@H](CC(C)C)C(=O)N[C@@H](CC(N)=O)C(=O)N[C@@H](CCCNC(=N)N)C(=O)N[C@@H](CCCCN)C(=O)N[C@@H](CC(C)C)C(=O)N[C@@H](CCSC)C(=O)N[C@@H](CCC(=O)O)C(=O)N[C@H](C(=O)N[C@H](C(N)=O)[C@@H](C)CC)[C@@H](C)CC)C(C)C [[Nle^8, Ser^ll, Leu^33]-hCRF(8-41)] (H-[Nle]DLSFHLLREVLEMARAEQLAQQAHLNRKLMEII-NH2)	inhibits	–

Reference: EP0153845A2, “CRF analogs” (THE SALK INSTITUTE FOR BIOLOGICAL STUDIES, priority 1984, dated 1985)
